Patent US20060167229A1, “Biologically active peptide conjugates” (priority 2002, published 2006)
Marks after values point to notes of the source that are not given here. Ends that are not written are not given here.

B1: IFN-γ: recombinant mouse IFN-γ (rmIFN-γ), Beijing Biotech Inc.; positive control (protein, UniProt P01580 23-155, looked up)
Interferon gamma: HGTVIESLESLNNYFNSSGIDVEEKSLFLDIWRNWQKDGDMKILQSQIISFYLRLFEVLKDNQAISNNISVIESHLITTFFSNSKAKKDAFMSIAKFEVNNPQVQRQAFNELIRVVHQLLPESSLRKRKRSRC

Tests used:
Assay type in all cases: in vivo, BALB/c mice
NK cell = NK cell cytotoxicity activity test (spleen cells of treated mice against YAC-1 target cells, MTT); details: for NK cell cytotoxic activity, X ± SD (%): healthy mice; for effect on the cytotoxic activity of NK cells (summary): statistically significant difference from saline in any of the dosage groups 0.5-500 μg/kg/day
Procedure, shortened: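 YAC-1 target cells (1×10^5/ml) mixed with splenocytes (4×10^6/ml) from mice given test substances i.p. daily for 15 days (10 mice/group). Effector-only and target-only wells served as controls. MTT added at 1 mg/ml for 4 h at 37 °C; absorbance read at 570/630 nm.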

mononuclear phagocyte = test: Carbon particle clearance test, phagocytosis function; parameters: key to X ± SD (phagocytotic index): α = cube root of K × (body weight ÷ liver+spleen weight); details: for X ± SD (phagocytotic index): healthy mice, saline 5.1 ± 0.6; for effect on the phagocytotic activity of mononuclear phagocyte (summary): statistically significant difference from saline in any of the dosage groups 0.5-500 μg/kg/day
Procedure, shortened: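 Clearance index K came from OD680 of blood sampled 1 and 5 min after tail-vein India ink ([…], diluted 5×), given on day 16. Phagocytic index α combined K with liver, spleen […] weights taken the same day.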

anti-SRBC antibody = test: Sheep Red Blood Cell (SRBC) hemolysis test, antibody formation; details: for anti-SRBC antibody formation, X ± SD (Unit): healthy mice, SRBC day 12 (IFN-γ, IL-2 3×10^5 IU/kg/day), saline 32 ± 7; for effect on the synthesis of anti-SRBC antibody upon the antigenic challenge (summary): statistically significant difference from saline in any of the dosage groups 0.5-500 μg/kg/day
Procedure, shortened: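 Antibody formation was read as haemolysis: 500-fold diluted serum, collected on day 16 after intraperitoneal SRBC (0.2 ml, day 12), was mixed with 2% SRBC plus complement for 10 min at 37° C. Supernatant haemoglobin measured with Drabkin reagent at OD540, indexed against a reference SRBC lysate ×500.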

thymus gland = test: Immunity organ weight test, thymus gland index; details: for weight of thymus gland (thymus gland index), X ± SD (%): healthy mice, saline 0.12 ± 0.02; for effect on the weight of the thymus gland (summary): statistically significant difference from saline in any of the dosage groups 0.5-500 μg/kg/day
Experimental: One day after the last test substance administration (day 16), the liver, spleen, and thymus gland were separated and blotted dry with filter paper and weighed. The phagocytosis index α was calculated as below: α=(^3√{square root over ( )}K)(W÷WLS)
Thymus gland index (%)=(thymus weight/body weight)×100%

[1] = peptide 5 μg/kg/day i.p. 15 days (IFN-γ, IL-2 3×10^5 IU/kg/day), saline 60 ± 9
[2] = peptide 500 μg/kg/day i.p. 15 days (IFN-γ, IL-2 3×10^5 IU/kg/day), saline 63 ± 9
[3] = peptide 0.5 μg/kg/day i.p. 15 days (IFN-γ, IL-2 3×10^5 IU/kg/day)
[4] = peptide 50 μg/kg/day i.p. 15 days (IFN-γ, IL-2 3×10^5 IU/kg/day)
[5] = peptide 500 μg/kg/day i.p. 15 days (IFN-γ, IL-2 3×10^5 IU/kg/day)
[6] = peptide 0.5 μg/kg/day i.p. 15 days
[7] = peptide 5 μg/kg/day i.p. 15 days
[8] = peptide 500 μg/kg/day i.p. 15 days
[9] = peptide 5 μg/kg/day i.p. 15 days (IFN-γ, IL-2 3×10^5 IU/kg/day)
[10] = peptide 0.5 μg/kg/day i.p. 15 days (IFN-γ, IL-2 3×10^5 IU/kg/day), saline 58 ± 7
[11] = peptide 50 μg/kg/day i.p. 15 days

Molecule	NK cell cytotoxic activity, X ± SD (%) (NK cell; [1])	NK cell cytotoxic activity, X ± SD (%) (NK cell; [2])	effect on the cytotoxic activity of NK cells (summary) (NK cell)	X ± SD (phagocytotic index) (mononuclear phagocyte; [3])	X ± SD (phagocytotic index) (mononuclear phagocyte; [4])	X ± SD (phagocytotic index) (mononuclear phagocyte; [5])	effect on the phagocytotic activity of mononuclear phagocyte (summary) (mononuclear phagocyte)	anti-SRBC antibody formation, X ± SD (Unit) (anti-SRBC antibody; [6])	anti-SRBC antibody formation, X ± SD (Unit) (anti-SRBC antibody; [7])	anti-SRBC antibody formation, X ± SD (Unit) (anti-SRBC antibody; [8])	effect on the synthesis of anti-SRBC antibody upon the antigenic challenge (summary) (anti-SRBC antibody)	weight of thymus gland (thymus gland index), X ± SD (%) (thymus gland; [9])	weight of thymus gland (thymus gland index), X ± SD (%) (thymus gland; [4])	effect on the weight of the thymus gland (summary) (thymus gland)	NK cell cytotoxic activity, X ± SD (%) (NK cell; [10])	anti-SRBC antibody formation, X ± SD (Unit) (anti-SRBC antibody; [11])	weight of thymus gland (thymus gland index), X ± SD (%) (thymus gland; [3])	weight of thymus gland (thymus gland index), X ± SD (%) (thymus gland; [5])	X ± SD (phagocytotic index) (mononuclear phagocyte; [9])	NK cell cytotoxic activity, X ± SD (%) (NK cell; peptide 50 μg/kg/day i.p. 15 days (IFN-γ, IL-2 3×10^5 IU/kg/day), saline 56 ± 8)
Tyr Ser Leu (YSL; listed as Sus scrofa) [CMS024]	78 ± 3 %	89 ± 8 %	increase	6.7 ± 0.5*^	6.6 ± 0.7	6.4 ± 1.0	enhance	98 ± 6*^@^ Unit	171 ± 39*^@^ Unit	75 ± 29*^@ Unit	enhance	0.23 ± 0.06*^ %	0.27 ± 0.02*^@^ %	increase	–	–	–	–	–	–
Tyr Ser Phe (YSF; listed as Sus scrofa) [CMS022]	–	–	increase	–	–	7.4 ± 0.6*^@^	enhance	–	–	68 ± 31*^@ Unit	enhance	0.25 ± 0.04*^@^ %	0.30 ± 0.03*^@^ %	increase	73 ± 11 %	110 ± 16*^@^ Unit	0.21 ± 0.06 %	0.26 ± 0.05*^@^ %	–	–
VAPEEHPTLLTEAPLNPK [CMS010]	82 ± 9 %	91 ± 4*^@^ %	increase	–	–	–	enhance	10 ± 3 Unit	–	112 ± 30*^@^ Unit	–	0.27 ± 0.05*^@^ %	–	increase	–	–	0.21 ± 0.03 %	0.19 ± 0.04 %	7.1 ± 0.7*^	–
VGMGQKDSYV [CMS020]	91 ± 6 %	–	increase	–	–	6.4 ± 0.6	enhance	10 ± 3 Unit	89 ± 24*^@ Unit	155 ± 35*^@^ Unit	–	0.24 ± 0.07*^@^ %	0.27 ± 0.03*^@^ %	increase	–	–	0.23 ± 0.05*^@^ %	0.19 ± 0.04 %	–	–
B1	80 ± 8 %	77 ± 8 %	–	6.4 ± 0.9	6.4 ± 0.9	6.4 ± 0.9	–	37 ± 10 Unit	37 ± 10 Unit	37 ± 10 Unit	–	0.15 ± 0.04%	0.15 ± 0.04%	–	72 ± 9 %	37 ± 10 Unit	0.15 ± 0.04%	0.15 ± 0.04%	6.4 ± 0.9	73 ± 10 %
